The record followed here is US20230339835A1, “2,3,5-TRIMETHYL-6-NONYLCYCLOHEXA-2,5-DIENE-1,4-DIONE FOR SUPPRESSING AND TREATING ALPHA-SYNUCLEINOPATHIES, TAUOPATHIES, AND OTHER DISORDERS” (PTC THERAPEUTICS, INC., priority 2018, published 2023).

Like-named read-outs stand apart in the source and are kept apart here.

A short description of the data set: Brain and plasma exposure of C9 in mice after oral dosing. The class given is in vivo. Conditions: mouse, 300 mg/kg PO in sesame oil, C57BL/6 mice. As to the method:
A 300 mg/kg dose of C9 was administered as a sesame oil solution via oral gavage to four C57BL/6 mice. Eight hours after compound administration, plasma and brain exposure were measured (Table 10).

In the case of `CCCCCCCCCC1=C(C)C(=O)C(C)=C(C)C1=O` [Compound C9, 2,3,5-trimethyl-6-nonylcyclohexa-2,5-diene-1,4-dione], the Kp at 8 h (brain and plasma, read-out: Brain:Plasma Ratio) was determined as 7. Besides, the concentration at 8 h was 27900 ng/g (brain, read-out: C9 [Brain]) and 3830 ng/mL (plasma, read-out: C9 [Plasma]).
